According to patent publication US10399968B2, “Hydroxyalkyl thiadiazole derivatives” (Daiichi Sankyo Company, Limited, priority 2015, dated 2019):
In brackets after ≈: the same amount, converted by molar mass. Like-named read-outs stand apart in the source and are kept apart here.

Experiments:
[1] = test system: Clostridium difficile ATCC 43255; experiment: Susceptibility of Clostridium difficile, agar dilution MIC; format: cell-based; details: Clostridioides difficile, ATCC43255, anaerobic
Protocol: The antibacterial activity of the compounds of the present invention against Clostridium difficile clinical isolates was tested by the agar dilution method. The assay was carried out according to the CLSI guidelines for managing the procedures of susceptibility tests “M11-A8, Methods for Antimicrobial Susceptibility Testing of Anaerobic Bacteria; Approved Standard-Eighth Edition. CLSI document (2012)”.
The test strains were spread on supplemented Brucella agar (SBA) plates and grown at 36° C. under anaerobic condition for 42 to 48 hours. The test compound dilutions were prepared with Brucella broth and SBA plates containing dilution of test compound were prepared. As an anaerobic growth control, plates not containing the test compound were also prepared. Colonies grown on plates were suspended with Brucella broth to adjust the turbidity to 0.5 McFarland using a densitometer. Suspension (1-2 μL) of the test strains was inoculated onto each agar surface by using a bacterial suspension inoculation apparatus. After anaerobic incubation at 36° C. for 42 to 48 hours, absence and presence of growth of each strain were examined with unaided eye. The MIC was determined at which a marked reduction occurs in the appearance of growth on the test plate as compared to that of growth on the anaerobic control plates.

S. aureus ATCC 29213 = experiment: Susceptibility of bacteria, broth microdilution MIC; format: cell-based; details: Staphylococcus aureus, ATCC29213
Protocol: The antibacterial activity of the compounds of the present invention was tested by the broth microdilution method. The assay was carried out according to the CLSI guidelines for managing the procedures of susceptibility tests: “M7-A7 Methods for Dilution Antimicrobial Susceptibility Tests for Bacteria That Grow Aerobically; Approved Standard-Seventh Edition (2006)”. Test strains were grown on appropriate agar plates overnight. A broth containing the test compound diluted serially 2-fold and diluents were dispensed at 100 μL to each well of a 96-well microplate. As a growth control, a well with a broth not containing the test compound was also prepared. Colonies grown on the plates were suspended in saline, adjusted to 0.5 McFarland (OD625=0.08 to 0.10) using a colorimeter, and then diluted 10-fold with saline. The bacterial suspension was inoculated at 4 μL into each well of the microplate using a bacterial suspension inoculation apparatus. The inoculated microplate was incubated at 35° C. overnight (about 20 hours). The growth condition was observed by the naked eye, and the minimum concentration to inhibit bacterial proliferation was defined as a minimum inhibitory concentration (MIC). The MICs of compounds disclosed herein for E. faecium, Streptococcus pneumoniae and Haemophilus influenzae are shown in Table 2, while for S. aureus in Table 3.

[2] = Oral bioavailability (BA) in monkeys; format: in vivo, Macaca fascicularis; details: male, cynomolgus monkey, blood, 1 mg/kg oral vs jugular vein
Protocol: To male Macaca fascicularis (3 or 4 year-old) fasted overnight, a solution of the test compound Captisol® was administered into the jugular vein (3 animals) and a solution of Lutrol® F68 was orally administered (3 animals). The dose of both test compounds was 1 mg/kg body weight of the monkey. The amount of Captisol® used was 0.18 mg/kg body weight of the monkey. The amount of Lutrol® F68 used was 0.02 mg/kg body weight of the monkey. The BA value was calculated by the formula below using the integration value (AUCiv(0-∞)) of the blood concentration extrapolated from time 0 to infinity after administration of both test compounds. BA(%)=[[(AUCpo(0-∞))/(dose po)]/[(AUCiv(0-∞))/(dose iv)]]×100 The greater a BA value of the compound shown, the higher the oral bioavailability is.

[3] = Oral bioavailability (BA) in rats; format: in vivo; details: male, SD, blood; Rat, 2 mg/kg oral vs jugular vein
Protocol: To SD male rats (7 week-old) fasted overnight, a solution of the test compound Captisol® was administered into the jugular vein (3 animals) and a solution of Lutrol® F68 was administered orally (3 animals). The dose of the test compounds was 2 mg/kg body weight of the rat for both administration routes. The amount of Captisol® used was 0.36 mg/kg body weight of the rat. The amount of Lutrol® F68 used was 0.02 mg/kg body weight of the rat. The BA value was calculated by the formula below using the integration value (AUCiv(0-∞)) of the blood concentration extrapolated from time 0 to infinity after administration of both test compounds. The greater a BA value of the compound shown, the higher the oral bioavailability is.

[4] = Change of weight when relative humidity varied stepwise; format: physicochemical
Protocol: The Form I thus obtained was characterized by i) the diffraction pattern obtained from powder X-ray diffraction analysis (CuK, λ=1.54 Å, scan rate=20°/min) (FIG. 2) and ii) the thermogravimetric analysis pattern (TG/DTA pattern) obtained from measurement of sample (3 mg) at heating rate of about 10° C./minute (FIG. 3). […] Further, the pattern of change of weight of the sample was shown (FIG. 4), which was observed when relative humidity was varied stepwise.
The thermogravimetric analysis pattern (TG/DTA pattern) obtained from measurement of sample (3 mg) at heating rate of about 10° C./minute is as depicted in FIG. 6. […] Further, the pattern of change of weight of the sample was shown in FIG. 7, which was observed when relative humidity was varied stepwise.

[5] = target: Clostridium difficile DNA gyrase (Clostridioides difficile, UniProt Q18C89); experiment: DNA supercoiling inhibition assay; format: biochemical; details: supercoiling of relaxed pBR322 DNA, 60 minutes at 37° C.
Protocol: DNA supercoiling assays (30 μL reaction) were performed in a buffer containing 15 mM Tris-HCl pH 7.5, 13% glycerol, 6 mM MgCl2, 0.1 mg/mL BSA, 70 mM KCl, 1 mM dithioerythritol, 400 ng of DNA substrate (relaxed pBR322 DNA) and different concentrations of test compounds and/or standards. The dilutions of test compounds and standards were prepared in 20% dimethylsulfoxide (DMSO) and added 3 μL/reaction. The reaction was started by adding 2 μL amounts of Clostridium difficile DNA gyrase into the reaction mixtures and reactions were allowed to proceed for 60 minutes at 37° C. A reaction was carried out by adding 3 μL of 20% DMSO instead of test compound as full reaction control, and another reaction was carried out by adding sterile water instead of the enzyme as no reaction control.
Reactions were stopped by the addition of 5 μL of 6×loading dye and were analyzed by electrophoresis through 1.0% agarose gels with 1×TAE running buffer. Gels were run at 60 V for 3 hours, stained with EtBr, and visualized by Gel Doc system (BioRad). Intensity of the supercoiled DNA bands was quantified, and the IC50 of Clostridium difficile DNA gyrase was calculated using Graph Pad Prism.

Staphylococcus aureus = experiment: Neutropenic mouse thigh or calf muscle infection model; format: in vivo; details: neutropenic mice, compared with linezolid
Description: After culture in broth medium (i) suitable diluent of a bacterial suspension of the Staphylococcus aureus strain, or (ii) equivalent mixture of suitable diluent of a bacterial suspension of the Enterococcus faecium strain and a 10% mucin suspension were used as the inoculum. The bacterial suspension was inoculated under anesthesia with a ketamine-xylazine mixture into the thigh or calf muscle of Swiss albino mice or ICR mice (4- to 6-week-old) compromised by the cyclophosphamide administration. The drug was administered to the mice 1 to 8 times at an interval of 3 to 24 hours. The number of bacteria in the thigh or calf muscle was counted for the non-treated group immediately before initial administration of the drug (pre-control), for the non-treated group (post-control) and for the drug-administered group on the next day of administration of the drug and infection. A change in the number of bacteria in the thigh or calf muscle was used as an index of therapeutic effect.

[6] = Solubility in water (JP1 / JP2 fluids); format: physicochemical; details: thermodynamic from solid
Protocol: A 10 mmol/L solution of the test compound was prepared in DMSO and dispensed 100 μL of 10 mmol/L DMSO stock solutions into labeled glass tubes in duplicate, one for Japanese Pharmacopeia First Fluid (JP1) and second for Japanese Pharmacopeia Second Fluid (JP2). After evaporation of DMSO from each tube, 500 μL of JP1 and JP2 fluid were added in each tube, respectively. These tubes were sonicated for 1 minute and placed on shaker for 30 minutes with an interval of 30 seconds at every 5 minute. Tubes were placed in dark at room temperature for 1 hour and solution was filtered through membrane filter. The filtrate was diluted 2-fold and 10-fold. The resulting test solutions was analyzed and quantified against the standards using UPLC (standard preparation—10 mmol/L solution in DMSO is serially diluted with 50% aqueous acetonitrile solution to prepare 2 solutions; 100 μmol/L standard solution and 5 μmol/L standard solutions).

E. faecium ATCC 29212 = experiment: Susceptibility of bacteria, broth microdilution MIC; format: cell-based; details: Enterococcus faecium, ATCC29212
Protocol: (§1) The antibacterial activity of the compounds of the present invention was tested by the broth microdilution method. The assay was carried out according to the CLSI guidelines for managing the procedures of susceptibility tests: “M7-A7 Methods for Dilution Antimicrobial Susceptibility Tests for Bacteria That Grow Aerobically; Approved Standard-Seventh Edition (2006)”. Test strains were grown on appropriate agar plates overnight. A broth containing the test compound diluted serially 2-fold and diluents were dispensed at 100 μL to each well of a 96-well microplate. As a growth control, a well with a broth not containing the test compound was also prepared. Colonies grown on the plates were suspended in saline, adjusted to 0.5 McFarland (OD625=0.08 to 0.10) using a colorimeter, and then diluted 10-fold with saline. The bacterial suspension was inoculated at 4 μL into each well of the microplate using a bacterial suspension inoculation apparatus. The inoculated microplate was incubated at 35° C. overnight (about 20 hours). The growth condition was observed by the naked eye, and the minimum concentration to inhibit bacterial proliferation was defined as a minimum inhibitory concentration (MIC).

[7] = test system: Haemophilus influenzae ATCC 49247; experiment: as above; format: cell-based; details: ATCC49247
Protocol: as §1

[8] = test system: Streptococcus pneumoniae ATCC 49619; experiment: as above; format: cell-based; details: ATCC49619
Protocol: as §1

Sequence of Clostridium difficile DNA gyrase (Q18C90 entry or part of it): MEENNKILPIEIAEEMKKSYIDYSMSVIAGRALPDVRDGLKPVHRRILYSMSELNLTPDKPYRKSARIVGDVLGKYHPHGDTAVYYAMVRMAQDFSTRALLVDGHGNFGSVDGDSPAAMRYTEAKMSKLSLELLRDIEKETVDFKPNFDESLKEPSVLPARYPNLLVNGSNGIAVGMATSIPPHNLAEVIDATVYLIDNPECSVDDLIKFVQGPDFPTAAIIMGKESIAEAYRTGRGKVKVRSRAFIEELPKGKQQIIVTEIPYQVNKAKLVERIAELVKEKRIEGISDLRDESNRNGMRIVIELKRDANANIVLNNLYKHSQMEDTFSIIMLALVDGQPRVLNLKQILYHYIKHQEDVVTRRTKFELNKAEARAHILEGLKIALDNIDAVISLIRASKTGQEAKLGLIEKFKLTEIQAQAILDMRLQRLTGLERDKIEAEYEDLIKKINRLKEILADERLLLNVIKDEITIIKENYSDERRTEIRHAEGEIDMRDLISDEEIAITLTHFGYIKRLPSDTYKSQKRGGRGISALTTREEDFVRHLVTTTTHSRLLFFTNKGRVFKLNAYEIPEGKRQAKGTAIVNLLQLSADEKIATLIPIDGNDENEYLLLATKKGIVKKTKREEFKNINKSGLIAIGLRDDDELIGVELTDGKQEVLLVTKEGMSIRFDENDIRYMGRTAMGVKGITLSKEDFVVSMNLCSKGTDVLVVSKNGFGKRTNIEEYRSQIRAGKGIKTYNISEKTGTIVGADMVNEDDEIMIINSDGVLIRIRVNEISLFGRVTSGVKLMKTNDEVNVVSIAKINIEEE
Sequence of Clostridium difficile DNA gyrase (Q18C89 entry or part of it): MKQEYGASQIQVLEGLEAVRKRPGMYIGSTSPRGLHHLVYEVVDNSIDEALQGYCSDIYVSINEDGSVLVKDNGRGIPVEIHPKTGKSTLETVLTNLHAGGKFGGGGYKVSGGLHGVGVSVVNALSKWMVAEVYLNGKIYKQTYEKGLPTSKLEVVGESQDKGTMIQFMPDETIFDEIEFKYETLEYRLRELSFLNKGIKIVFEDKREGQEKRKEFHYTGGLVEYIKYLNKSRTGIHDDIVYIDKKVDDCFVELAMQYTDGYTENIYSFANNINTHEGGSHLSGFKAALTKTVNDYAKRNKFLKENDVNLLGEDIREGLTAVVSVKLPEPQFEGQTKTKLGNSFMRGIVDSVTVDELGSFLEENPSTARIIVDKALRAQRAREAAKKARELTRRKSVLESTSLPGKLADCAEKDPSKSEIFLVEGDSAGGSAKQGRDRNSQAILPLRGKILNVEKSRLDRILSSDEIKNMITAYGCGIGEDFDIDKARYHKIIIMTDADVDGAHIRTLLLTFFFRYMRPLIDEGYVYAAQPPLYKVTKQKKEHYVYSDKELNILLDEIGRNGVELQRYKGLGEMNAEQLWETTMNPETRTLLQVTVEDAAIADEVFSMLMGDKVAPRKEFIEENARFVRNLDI

SMILES: CCc1[nH]c(C(=O)N[C@@H]2CCN(c3nnc(C(C)O)s3)C[C@@H]2OC)nc1Cl (mixture of isomers) [Compound No. 3, 4-Chloro-5-ethyl-N-{(3S,4R)-1-[5-(1-hydroxyethyl)-1,3,4-thiadiazol-2-yl]-3-methoxypiperidin-4-yl}-1H-imidazole-2-carboxamide]
- MIC [1]: 0.125 µg/mL
- MIC (S. aureus ATCC 29213): 0.5 µg/mL
- bioavailability [2]: 100%
- bioavailability [3]: 51%

SMILES: CCc1[nH]c(C(=O)N[C@@H]2CCN(c3nnc(C(C)(C)O)s3)C[C@@H]2OC)nc1Cl [Form II, 4-chloro-5-ethyl-N-{(3S,4R)-1-[5-(2-hydroxypropan-2-yl)-1,3,4-thiadiazol-2-yl]-3-methoxypiperidin-4-yl}-1H-imidazole-2-carboxamide]
- weight change due absorption or desorption of moisture [4]: no weight change

SMILES: CCc1[nH]c(C(=O)N[C@@H]2CCN(c3nnc([C@@H](C)O)s3)C[C@@H]2OC)nc1Cl (single isomer, unassigned) [Compound No. 4]
- MIC [1]: 0.06 µg/mL (≈ 0.145 µM)
- MIC (S. aureus ATCC 29213): 0.5 µg/mL (≈ 1.21 µM)
- IC50 [5]: 14.5 nM
- therapeutic effect against Staphylococcus aureus (number of bacteria in thigh or calf muscle) (Staphylococcus aureus): equivalent to or higher than linezolid
- solubility at 30 min ([6]; Japanese Pharmacopeia First Fluid (JP1), pH 1.2, simulated gastric fluid, read-out: Solubility JP1): 612 µg/mL (≈ 1470 µM)
- solubility at 30 min ([6]; Japanese Pharmacopeia Second Fluid (JP2), pH 6.8, aqueous buffer, read-out: Solubility JP2): 304 µg/mL (≈ 733 µM)
- bioavailability [2]: 92%
- MIC (E. faecium ATCC 29212): 0.25 µg/mL (≈ 0.603 µM)
- MIC [7]: 1 µg/mL (≈ 2.41 µM)
- MIC [8]: 0.25 µg/mL (≈ 0.603 µM)

SMILES: CCc1[nH]c(C(=O)N[C@@H]2CCN(c3nnc(C(C)(C)O)s3)C[C@@H]2OC)nc1Cl [Form I, 4-chloro-5-ethyl-N-{(3S,4R)-1-[5-(2-hydroxypropan-2-yl)-1,3,4-thiadiazol-2-yl]-3-methoxypiperidin-4-yl}-1H-imidazole-2-carboxamide]
- change of weight [4]: ≤ 0.3%
